# Assay results: patent publication US20220155322A1, “USE OF NATRIURETIC PEPTIDES TO ASSESS AND TREAT ACUTE KIDNEY INJURY” (Mayo Foundation for Medical Education and Research, priority 2019, published 2022)
# Positions of bridges follow the written chain, without caps; N, C: chain ends. Residues, ends and D or L forms follow the SMILES beside them.
# Tests used:
# [1] = test system: AKI canine kidneys (renal cortex); assay: Renal injury ex vivo analysis (H&E histology and TUNEL); format: in vivo; conditions: AKI canine kidney cortex, compared to vehicle
# Protocol: Histology and TUNEL Analysis: Fixed renal tissues were embedded in paraffin. For histology analysis, paraffin-embedded slides in vehicle (n=5) and CRRL269 (n=5) were stained with hematoxylin and eosin (H&E). A renal pathologist who was blinded to the study examined the H&E stained slides. Renal morphologic injuries such as tubular dilation and vacuolization were evaluated. Renal cortical apoptosis in vehicle (n=5) and CRRL269 (n=5) treated dogs were assessed using a TUNEL assay (Promega; Madison, Wis.) followed the protocol provided by the manufacturer. […] DAPI (Vectashield, Vector Laboratories; Burlingame, Calif.) was used to label the nucleus. TUNEL results were analyzed by confocal fluorescence microscopy (Nikon A50R; Melville, N.Y.).
# [2] = test system: human primary aortic vascular smooth muscle cells (HASMC); assay: Intracellular calcium under ANGII stimulation (Fura-2); format: cell-based
# Protocol: Measurements of Intracellular Calcium in Vascular Smooth Muscle Cells: HASMC (ScienCell Research Laboratories; Carlsbad, Calif.) were cultured and maintained as instructed by the manufacturer. Cells at passage 4 or 5 were used for experiments. Calcium imaging was performed as described elsewhere (Chai et al., Cardiovasc Res, 100:151-159, 2013). Briefly, cells were seeded on a 25 mm round cover glass (Fisher Scientific; Pittsburgh, Pa.) at a density of 5×10^4 cells per slide. The slides had been pretreated with 0.5 N NaOH for 8 hours, rinsed with water, and sterilized before use. After overnight culturing, the slides with cells were assembled in a MS-02 Chamber (ALA Scientific Instrument; Farmingdale, N.Y.) and loaded with 3 μM fura-2 AM (Invitrogen; Carlsbad, Calif.) for 30 minutes in a 37° C. incubator. The chamber was then placed on the stage of an inverted Olympus IX71 microscope (Olympus America Inc.; Waltham, Mass.). The cells were maintained in 1 mL HASMC medium and treated with or without ANP, BNP, or CRRL269 at concentration of 10^−9 or 10^−7 M for 5 minutes before perfused with 5 mL medium containing ANGII (10^−8 or 10^−7 M). Intracellular Ca2^+ fluorescence signals were measured as a ratio of fluorescence intensities at 510 nm from excitations of 340/380 nm, using a Hamamatsu ORCA-R2 CCD camera with a Sutter LB-LS/17 light source. Baseline fluorescence was recorded after 5 minutes of treatment, and fluorescence images were acquired continuously during the ANGII perfusion. Background fluorescence was subtracted and the calcium signal (F) was normalized to baseline fluorescence (FO) and expressed as a ratio (F/FO) using MetaFluor software (Olympus America Inc.).
structure (smiles),measurement,setting,value
CC[C@H](C)[C@@H]1NC(=O)[C@H](CCCNC(=N)N)NC(=O)[C@H](CC(=O)O)NC(=O)[C@H](CCSC)NC(=O)[C@H](CCCCN)NC(=O)[C@H](CCCNC(=N)N)NC(=O)CNC(=O)[C@H](Cc2ccccc2)NC(=O)[C@@H](NC(=O)[C@H](CO)NC(=O)[C@H](CO)NC(=O)[C@H](CCCNC(=N)N)NC(=O)[C@H](CCCNC(=N)N)NC(=O)[C@H](CC(C)C)NC(=O)[C@H](CO)NC(=O)[C@H](CCCNC(=N)N)NC(=O)[C@@H]2CCCN2C(=O)[C@H](C)NC(=O)[C@@H](N)[C@@H](C)O)CSSC[C@@H](C(=O)N[C@@H](CC(N)=O)C(=O)N[C@@H](CO)C(=O)N[C@@H](Cc2ccccc2)C(=O)N[C@@H](CCCNC(=N)N)C(=O)N[C@@H](Cc2ccc(O)cc2)C(=O)O)NC(=O)CNC(=O)[C@H](CC(C)C)NC(=O)CNC(=O)[C@H](CO)NC(=O)[C@H](CO)NC(=O)[C@H](CO)NC(=O)[C@H](CO)NC1=O [CRRL269] (H-TAPRSLRRSSCFGRKMDRISSSSGLGCNSFRY-OH; disulfide 11-27),renal cortex vacuolization (H&E staining),[1],less vacuolization compared to vehicle
same,renal cortical apoptosis (TUNEL assay),[1],reduced apoptosis
same,Ca2^+ suppression relative to ANP and BNP,"[2]; HASMC, pretreatment at 10^−9 or 10^−7 M, ANGII stimulation",less Ca2^+ suppression than ANP and BNP
same,Ca2^+ enhancement by ANGII in HASMC,"[2]; pretreatment at 10^−9 or 10^−7 M for 5 minutes, ANGII 10^−8 or 10^−7 M",suppressed
